Patent US6579882B2, “Cell adhesion-inhibiting antiinflammatory compounds” (Abbott Laboratories, priority 1998, dated 2003)

How the values were obtained:
VCAM-1 = assay: CAM ELISA: VCAM-1 expression on TNF-stimulated HUVECs; type: cell-based; conditions: 1 μM compound, primary human umbilical vein endothelial cells, compound 24 hours, then TNF 5 ng/mL 6 hours; for inhibition at 1 µM: Homo sapiens, Endothelial cell
Description: (§1) Pooled primary human umbilical vein endothelial cells (HtVEC's) (Clonetics) between passages 3 and 7 were plated in 96-well plates (Costar), 100 μL/well, 5×10^4 cells/mL in Clonetics EBM/2% FBS/EGF/Bovine brain extract/gentamicin in the absence of hydrocortisone. The following day, compounds of the invention were added in 10 μL/well medium, and the plates were incubated at 37° C. 24 hours after compound addition, TNF (Gibco/BRL) in 10 μL/well medium was added to a final concentration of 5 ng/mL, and the cells were incubated an additional 6 hours at 37° C. Then media was removed, and the plates were washed once with D-PBS (Gibco/BRL) and treated with primary antibodies (Becton Dickinson, City), 100 μL/well in D-PBS/2% BSA (Sigma)/0.01% azide. Primary antibodies at an initial concentration of 1 mg/mL were used at the following dilutions: anti-ELAM-1, 1:2000, anti-ICAM-1, 1:2000 and anti-VACM-1, 1:3000. Plates were stored overnight at 4° C., washed 3 times with D-PBS, and treated with secondary antibody (Jackson Labs), 100 μL/well 1:8000 dilution HRP-conjugated donkey anti-mouse IgG(H+L) in D-PBS/2%BSA. Plates were incubated a minimum of 1 hour at room temperature, washed 3 times with D-PBS and treated with 100 μL of orhto-phenylene diamine-2 HCl reagent per well. Plates were developed approximately 15 minutes and neutralized with 100 μL/well 1N sulfuric acid. Absorbance was read at 490 nm.

E-Selectin = assay: CAM ELISA: E-selectin expression on TNF-stimulated HUVECs; type: cell-based; conditions: 1 μM compound, primary human umbilical vein endothelial cells, compound 24 hours, then TNF 5 ng/mL 6 hours; for inhibition at 1 µM: Homo sapiens, Endothelial cell
Description: as §1

ICAM-1 = assay: CAM ELISA: ICAM-1 expression on TNF-stimulated HUVECs; type: cell-based; conditions: 1 μM compound, primary human umbilical vein endothelial cells, compound 24 hours, then TNF 5 ng/mL 6 hours; for inhibition at 1 µM: Homo sapiens, Endothelial cell
Description: as §1

melting point	SMILES	CAM ELISA % Inhibition at 1 μM VCAM-1 (VCAM-1)	inhibition at 1 µM (VCAM-1)	CAM ELISA % Inhibition at 1 μM E-Selectin (E-Selectin)	inhibition at 1 µM (E-Selectin)	CAM ELISA % Inhibition at 1 μM ICAM-1 (ICAM-1)	inhibition at 1 µM (ICAM-1)
113 to 114 °C	CCOCCOCCOCC1(c2ccc(Oc3cncc4sc(-c5nnc(N)o5)cc34)cc2)CC1 [Example 228, 5-{4-[4-(1-{[2-(2-Ethoxyethoxy)ethoxy]methyl}cyclopropyl)phenoxy]thieno[2,3-c]pyridin-2-yl}-1,3,4-oxadiazol-2-amine]	52%	54%	67%	70%	64%	68%
120 to 121 °C	Cc1nc(-c2cc3c(Oc4ccc(Cl)cc4)cncc3s2)no1 [Example 279, 4-(4-Chlorophenoxy)-2-(5-methyl-1,2,4-oxadiazol-3-yl)thieno[2,3-c]pyridine]		24%		30%		40%
168 to 170 °C (dec.)	Nc1csc(-c2cc3c(Oc4ccc(Cl)cc4)cncc3s2)n1 [Example 295, 2-[4-(4-Chlorophenoxy)thieno[2,3-c]pyridin-2-yl]-1,3-thiazol-4-amine]		44%		59%		56%
194 to 196 °C	NC(=NO)c1cc2c(Oc3ccc(Cl)cc3)cncc2s1 [Example 249, 4-(4-Chlorophenoxy)-N′-hydroxythieno[2,3-c]pyridine-2-carboximidamide]		61%		75%		69%
90 to 91 °C	OCc1cc2c(Oc3ccc(Cl)cc3)cncc2s1 [Example 90, 4-(4-chlorophenoxy)thieno[2,3-c]pyridine-2-methanol]		27%		47%		51%
217 to 219 °C	Nc1noc(-c2cc3c(Oc4ccc(Cl)cc4)cncc3s2)n1 [Example 285, 5-[4-(4-Chlorophenoxy)thieno[2,3-c]pyridin-2-yl]-1,2,4-oxadiazol-3-amine]		50%		56%		65%
129 to 132 °C	O=C(NCCO)c1cc2c(Oc3ccc(Cl)cc3)cnc(Cl)c2s1 [Example 313, 7-Chloro-4-(4-chlorophenoxy)-N-(2-hydroxyethyl)thieno[2,3-c]pyridine-2-carboxamide]		39%		57%		68%
239 to 242 °C	NC(=O)c1cc2c(Sc3ccccn3)cncc2s1 [Example 20, 4-(2-pyridinylthio)thieno[2,3-c]pyridine-2-carboxamide]		26%		55%		46%
233 to 235 °C	Cn1c(N)nnc1-c1cc2c(Oc3ccc(Cl)cc3)cncc2s1 [Example 283, 5-[4-(4-Chlorophenoxy)thieno[2,3-c]pyridin-2-yl]-4-methyl-4H-1,2,4-triazol-3-amine]		52%		39%		57%
208 to 210 °C	Nc1ccc(-c2cc3c(Oc4ccc(Cl)cc4)cncc3s2)cn1 [Example 274, 5-[4-(4-Chlorophenoxy)thieno[2,3-c]pyridin-2-yl]-2-pyridinamine]		44%		65%		71%
	Clc1ccc(Oc2cncc3sc(-c4nnn[nH]4)cc23)cc1 [Example 282A, 4-(4-Chlorophenoxy)-2-(1,2,3,4-tetrazol-5-yl)thieno[2,3-c]pyridine]		5%		8%		15%
	NC(=O)CNC(=O)c1cc2c(Oc3ccc(Br)cc3)cncc2s1 [Example 161, N-(2-Amino-2-oxoethyl)-4-(4-bromophenoxy)thieno[2,3-c]pyridine-2-carboxamide]		51%		51%		58%
	NC(=O)c1cc2c(Oc3cccnc3)cncc2s1 [Example 170, 4-(3-Pyridinyloxy)thieno[2,3-c]pyridine-2-carboxamide]		53%		66%		67%
	Cc1ccc(Oc2cncc3sc(C(N)=O)cc23)cc1 [Example 60, 4-(4-methylphenoxy)thieno[2,3-c]pyridine-2-carboxamide]		42%		74%		71%
	CNC(=O)c1cc2c(Oc3ccc(N4CCOCC4)cc3)cncc2s1 [Example 190C, N-Methyl-4-[4-(4-morpholinyl)phenoxy]thieno[2,3-c]pyridine-2-carboxamide]		37%		70%		65%
	NC(=O)c1sc2cncc(Cl)c2c1N [Example 301, 3-Amino-4-chlorothieno[2,3-c]pyridine-2-carboxamide]		34%		44%		48%
	NC(=O)c1cc2c(C(=O)Nc3ccc(Cl)cc3)cncc2s1 [Example 238, N-4-(4-Chlorophenyl)thieno[2,3-c]pyridine-2,4-dicarboxamide]	17%		46%		47%	
	O=C(NCCN1CCOCC1)c1cc2c(Oc3ccc(Cl)cc3)cncc2s1 [Example 119, 4-(4-chlorophenoxy)-N-[2-(4-morpholinyl)ethyl]thieno[2,3-c]pyridine-2-carboxamide]		36%		59%		61%
	Cc1ccc(Sc2c(/C=C/C(N)=O)sc3cnccc23)cc1 [Example 32]	41%		75%		63%	
	CNC(=O)c1cc2c(Oc3ccc(OC(F)(F)F)cc3)cncc2s1 [Example 227, N-Methyl-4-[4-(trifluoromethoxy)phenoxy]thieno[2,3-c]pyridine-2-carboxamide]		44%		61%		62%
	CCOC(=O)c1cccc(Oc2cncc3sc(C(N)=O)cc23)c1 [Example 79, ethyl 3-[[2-(aminocarbonyl)thieno[2,3-c]pyridin-4-yl]oxy]benzoate]		38%		66%		63%
	CNC(=O)c1cc2c(Oc3ccc(-c4ccccc4)cc3)cncc2s1 [Example 223]	36%		34%		36%	
	CNC(=O)c1cc2c(Oc3ccc(Cl)cc3)cnc(Cl)c2s1 [Example 312, 7-Chloro-4-(4-chlorophenoxy)-N-methylthieno[2,3-c]pyridine-2-carboxamide]		42%		64%		76%
	CNC(=O)c1nc2cncc(Oc3ccc(C)cc3)c2s1 [Example 325]	42%		76%		68%	
	CNC(=O)c1cc2c(Oc3ccc(C(F)(F)CO)cc3)cncc2s1 [Example 229]	46%		54%		55%	
	NS(=O)(=O)c1cc2c(Oc3ccc(Cl)cc3)cncc2s1 [Example 120, 4-(4-Chlorophenoxy)thieno[2,3-c]pyridine-2-sulfonamide]		49%		72%		72%
